According to patent US11591369B2, “Alpha(v)beta(6) integrin-binding peptides and methods of use thereof” (priority 2018, dated 2023):
“And” between values parts separate entries of the source, which are not always exact repeats. Identical values can stand only once. Like-named read-outs stand apart in the source and are kept apart here. Where a SMILES comes first, the peptide text is derived from it. Primed or numbered codes have the meaning given here. Where no end group is shown, it is not given here. The star is where a group is joined. (18F)FB″ = [18F]fluorobenzoyl, O=C(c1ccc([18F])cc1)*; Benzoyl(4-F) = O=C(c1ccc(F)cc1)*

Key:
αvβ8 integrin = target: T1, αvβ8 integrin (Homo sapiens, UniProt P06756+P26012); assay: Competitive binding ELISA, αvβ8 integrin
T1 construct: All purified integrins were purchased from R&D Systems (MN, USA); purchased R&D Systems (MN, USA)

αvβ6 integrin = target: T2, αvβ6 integrin (Homo sapiens, UniProt P06756+P18564); assay: Competitive binding ELISA against biotinylated LAP (BtLAP), αvβ6 integrin; conditions: for binding selectivity for αvβ6 over αvβ3 and αvβ8 integrins: ELISA IC50 ratio; for IC50 αvβ6: competitive ELISA vs BtLAP, mean ± SD, n = 3
T2 construct: All purified integrins were purchased from R&D Systems (MN, USA); purchased R&D Systems (MN, USA)

αvβ3 integrin = target: T3, αvβ3 integrin (Homo sapiens, UniProt P05106+P06756); assay: Competitive binding ELISA, αvβ3 integrin
T3 construct: All purified integrins were purchased from R&D Systems (MN, USA); purchased R&D Systems (MN, USA)

DX3puroβ6 (αvβ6+) cells = assay: [18F]-radiolabeled peptide cell binding and internalization, DX3puroβ6 (αvβ6+) cells; format: cell-based, human; conditions: for binding to DX3puroβ6 (αvβ6+) cells: % of total activity, 37° C.
[1] = 37° C., 1 hour, radio-HPLC
[2] = Circular dichroism (CD) spectroscopy; format: physicochemical; conditions: for % Helical Content CD Buffer: 25 mM phosphate + 100 mM NaF; for % Helical Content CD Buffer + 30% TFE: buffer with 30% trifluoroethanol; for α-helix formation in CD buffer with TFE: buffer with added TFE, 30%

CC(C)C[C@H](NC(=O)[C@H](CC(=O)O)NC(=O)[C@H](CO)NC(=O)[C@H](CCCNC(=N)N)NC(=O)c1ccc(F)cc1)C(=O)N[C@H](C(=O)N1CCC[C@H]1C(=O)N[C@@H](CC(C)C)C(=O)N[C@@H](Cc1ccccc1)C(=O)N[C@@H](CCC(N)=O)C(=O)N[C@@H](CCCCN)C(=O)N[C@H](C(=O)N[C@@H](C)C(=O)N[C@@H](CCCNC(=N)N)C(=O)N[C@H](C(N)=O)[C@@H](C)O)C(C)C)[C@@H](C)O [KL3Q] ({Benzoyl(4-F)}-RSDLTPLFQKVART-NH2)
IC50 (αvβ8 integrin): > 100000 nM
IC50 (αvβ6 integrin): 8.7 ± 0.7 nM
IC50 (αvβ3 integrin): > 100000 nM

CC(C)C[C@H](NC(=O)[C@H](CC(=O)O)NC(=O)[C@H](CO)NC(=O)[C@H](CCCNC(=N)N)NC(=O)c1ccc(F)cc1)C(=O)N[C@H](C(=O)N1CCC[C@H]1C(=O)N[C@@H](CC(C)C)C(=O)N[C@@H](Cc1ccccc1)C(N)=O)[C@@H](C)O [KL3] ({Benzoyl(4-F)}-RSDLTPLF-NH2)
IC50 (αvβ8 integrin): > 100000 nM
IC50 (αvβ6 integrin): 1700 ± 500 nM
binding to DX3puroβ6 (αvβ6+) cells (DX3puroβ6 (αvβ6+) cells; 1 hour): 0.7±0.2%
DX3puroβ6 (αvβ6+)/DX3puro (αvβ6−) selectivity ratio (DX3puroβ6 (αvβ6+) cells; cell binding, 1 hour): 0.9±0.5 :1
IC50 (αvβ3 integrin): > 100000 nM

CC(C)C[C@H](NC(=O)[C@H](Cc1ccc(O)cc1)NC(=O)[C@@H](NC(=O)[C@H](CC(C)C)NC(=O)[C@H](CC(=O)O)NC(=O)CNC(=O)[C@@H](NC(=O)CCOCCOCCOCCOCCOCCOCCOCCOCCOCCOCCOCCOCCOCCOCCOCCOCCOCCOCCOCCOCCOCCOCCOCCOCCOCCOCCOCCOCCNC(=O)c1ccc(F)cc1)C(C)C)[C@@H](C)O)C(=O)N[C@@H](CCCCN)C(=O)N[C@@H](CCC(N)=O)C(=O)N[C@@H](CCCCN)C(=O)N[C@H](C(=O)N[C@@H](C)C(=O)N[C@@H](CCCNC(=N)N)C(=O)N[C@H](C(=O)NCCOCCOCCOCCOCCOCCOCCOCCOCCOCCOCCOCCOCCOCCOCCOCCOCCOCCOCCOCCOCCOCCOCCOCCOCCOCCOCCOCCOCCC(N)=O)[C@@H](C)O)C(C)C [N-[^18F]T1-e]
percent internalized relative to the amount bound to DX3puroβ6 (αvβ6+) cells (DX3puroβ6 (αvβ6+) cells; 1 hour): 25.7±2.2% and 25.7±2.7%
binding to DX3puroβ6 (αvβ6+) cells (DX3puroβ6 (αvβ6+) cells; 1 hour): 1.5±0.1%
intact peptide in mouse serum [1]: > 99%
intact peptide in mouse serum ([1]; 60 min): 100%

CC(C)C[C@H](NC(=O)[C@H](Cc1ccc(O)cc1)NC(=O)[C@@H](NC(=O)[C@H](CC(C)C)NC(=O)[C@H](CC(=O)O)NC(=O)CNC(=O)[C@@H](NC(=O)c1ccc(F)cc1)C(C)C)[C@@H](C)O)C(=O)N[C@@H](CCCCN)C(=O)N[C@@H](CCCCN)C(=O)N[C@@H](CCCCN)C(=O)N[C@H](C(=O)N[C@@H](C)C(=O)N[C@@H](CCCNC(=N)N)C(=O)N[C@H](C(N)=O)[C@@H](C)O)C(C)C [P1K-b]
IC50 (αvβ8 integrin): > 100000 nM
IC50 (αvβ6 integrin): 10 ± 2 nM
binding selectivity for αvβ6 over αvβ3 and αvβ8 integrins (αvβ6 integrin): 10,000 :1
IC50 αvβ6 (αvβ6 integrin): low nanomolar
IC50 (αvβ3 integrin): > 100000 nM

CC(C)C[C@H](NC(=O)[C@H](Cc1ccc(O)cc1)NC(=O)[C@@H](NC(=O)[C@H](CC(C)C)NC(=O)[C@H](CC(=O)O)NC(=O)CNC(=O)[C@@H](NC(=O)c1ccc(F)cc1)C(C)C)[C@@H](C)O)C(=O)N[C@@H](CCCCN)C(=O)N[C@@H](CCCNC(=N)N)C(=O)N[C@@H](CCCCN)C(=O)N[C@@H](C)C(=O)N[C@H](C(=O)N[C@H](C(=O)N[C@@H](CCC(N)=O)C(N)=O)C(C)C)[C@@H](C)O [P1Q-Scrb] ({Benzoyl(4-F)}-VGDLTYLKRKATVQ-NH2)
IC50 (αvβ8 integrin): 2900 ± 740 nM
IC50 (αvβ6 integrin): 14 ± 2 nM
IC50 αvβ6 (αvβ6 integrin): low nanomolar
IC50 (αvβ3 integrin): > 100000 nM

CC(C)C[C@H](NC(=O)[C@H](Cc1ccc(O)cc1)NC(=O)[C@@H](NC(=O)[C@H](CC(C)C)NC(=O)[C@H](CC(=O)O)NC(=O)CNC(=O)[C@@H](NC(=O)c1ccc(F)cc1)C(C)C)[C@@H](C)O)C(=O)N[C@@H](CCCCN)C(=O)N[C@@H](CCC(N)=O)C(=O)N[C@@H](CCCCN)C(=O)N[C@H](C(=O)N[C@@H](C)C(=O)N[C@@H](CCCNC(=N)N)C(=O)N[C@H](C(N)=O)[C@@H](C)O)C(C)C [P1Q]
IC50 (αvβ8 integrin): > 100000 nM
IC50 (αvβ6 integrin): 12 ± 1 nM
binding selectivity for αvβ6 over αvβ3 and αvβ8 integrins (αvβ6 integrin): 10,000 :1
IC50 αvβ6 (αvβ6 integrin): low nanomolar
DX3puroβ6 (αvβ6+)/DX3puro (αvβ6−) selectivity ratio (DX3puroβ6 (αvβ6+) cells): 10.3 ± 1:1
% Helical Content CD Buffer [2]: 1.6%
% Helical Content CD Buffer + 30% TFE [2]: 45.1%
α-helix formation in CD buffer with TFE [2]: α-helices were induced
IC50 (αvβ3 integrin): > 100000 nM

CC(C)C[C@H](NC(=O)[C@H](Cc1ccc(O)cc1)NC(=O)[C@@H](NC(=O)[C@H](CC(C)C)NC(=O)[C@H](CC(=O)O)NC(=O)CNC(=O)[C@@H](N)C(C)C)[C@@H](C)O)C(=O)N[C@@H](CCCCN)C(=O)N[C@@H](CCCCNC(=O)c1ccc(F)cc1)C(N)=O [P1] (H-VGDLTYLKK(Benzoyl(4-F))-NH2)
IC50 (αvβ8 integrin): 5300 ± 140 nM
IC50 (αvβ6 integrin): 450 ± 60 nM
DX3puroβ6 (αvβ6+)/DX3puro (αvβ6−) selectivity ratio (DX3puroβ6 (αvβ6+) cells): 1.1 ± 0.1:1
% Helical Content CD Buffer [2]: 6.3%
% Helical Content CD Buffer + 30% TFE [2]: 9.5%
α-helix formation in CD buffer with TFE [2]: could not form the helix
IC50 (αvβ3 integrin): > 100000 nM

CC(C)C[C@H](NC(=O)[C@H](CC(=O)O)NC(=O)CNC(=O)[C@H](CCCNC(=N)N)NC(=O)CNC(=O)c1ccc(F)cc1)C(=O)NCC(=O)N[C@@H](CCCNC(=N)N)C(=O)N[C@@H](CC(C)C)C(=O)N[C@@H](C)C(=O)N[C@@H](CCC(N)=O)C(=O)N[C@@H](CCCCN)C(=O)N[C@H](C(=O)N[C@@H](C)C(=O)N[C@@H](CCCNC(=N)N)C(=O)N[C@H](C(N)=O)[C@@H](C)O)C(C)C [SFLAP3-15mer] ({Benzoyl(4-F)}-GRGDLGRLAQKVART-NH2)
IC50 (αvβ6 integrin): 1.3 ± 0.2 nM
DX3puroβ6 (αvβ6+)/DX3puro (αvβ6−) selectivity ratio (DX3puroβ6 (αvβ6+) cells; cell binding, 1 hour): 3.9 ± 0.4:1
% Helical Content CD Buffer [2]: 13.4%
% Helical Content CD Buffer + 30% TFE [2]: 31.6%

CC(C)C[C@H](NC(=O)[C@H](Cc1ccc(O)cc1)NC(=O)[C@@H](NC(=O)[C@H](CC(C)C)NC(=O)[C@H](CC(=O)O)NC(=O)CNC(=O)[C@@H](NC(=O)c1ccc(F)cc1)C(C)C)[C@@H](C)O)C(=O)N[C@@H](CCCCN)C(=O)N[C@@H](CCC(N)=O)C(=O)N[C@@H](CCCCN)C(=O)N[C@H](C(=O)N[C@@H](C)C(=O)N[C@@H](CCCNC(=N)N)C(=O)N[C@H](C(=O)NCCOCCOCCOCCOCCOCCOCCOCCOCCOCCOCCOCCOCCOCCOCCOCCOCCOCCOCCOCCOCCOCCOCCOCCOCCOCCOCCOCCOCCC(N)=O)[C@@H](C)O)C(C)C [T1]
DX3puroβ6 (αvβ6+)/DX3puro (αvβ6−) selectivity ratio (DX3puroβ6 (αvβ6+) cells): 41.7±5.3 :1
binding to DX3puroβ6 (αvβ6+) cells (DX3puroβ6 (αvβ6+) cells; 1 hour): 18.1±0.8%
intact peptide in mouse serum [1]: 61%

RGDLADLRK([^18F]FB) (RGDLADLRK((18F)FB″)) [[^18F]P3]
percent internalized relative to the amount bound to DX3puroβ6 (αvβ6+) cells (DX3puroβ6 (αvβ6+) cells; 1 hour): 4.3±0.6%
binding to DX3puroβ6 (αvβ6+) cells (DX3puroβ6 (αvβ6+) cells; 1 hour): 10.8±1.4%
intact peptide in mouse serum [1]: 0%
